From article PMC12655682, “Screening-Identified Oxazole-4-Carboxamide KB-2777 Exhibits In Vitro Anti-Coronavirus Activity” (Pharmaceutics, 2025)
pEC50: −log10 of the molar value. Entries after “also recorded” stand apart in the source; their conditions may differ.

What was measured:
[1] = Cytotoxicity (EZ-Cytox WST) in LLC-MK2 cells; assay type: cell-based; conditions: rhesus monkey, 72 h exposure
Procedure: Cells were seeded at 2 × 10^4 cells per well in 96-well plates and, after overnight attachment, exposed to test compounds for 72 h in maintenance medium. The final DMSO concentration was ≤0.1% (v/v) for all conditions, including vehicle controls. Cell viability was quantified using EZ-Cytox WST reagent (DoGenBio, Seoul, Republic of Korea) according to the manufacturer’s instructions; absorbance was read at 450 nm on a SpectraMax i3x microplate reader (Molecular Devices, San Jose, CA, USA). Viability for each well was normalized to the mean of vehicle-treated (mock) controls on the same plate and expressed as percent viability. Each condition included technical replicates (n = 3) per experiment. Concentration–response data from ≥3 independent experiments were fit to a four-parameter logistic (4PL) model in GraphPad Prism 10.1.2 (GraphPad Software, San Diego, CA, USA) (log10-transformed concentrations; bottom and top unconstrained).

[2] = Visible crystals or precipitates in the cell assay (soluble range); assay type: physicochemical; conditions: cell assay medium; without loss of viability or morphological change
Procedure: We screened 11 oxazole-4-carboxamide derivatives (Figure 1) against HCoV-NL63 in LLC-MK2 cells and quantified antiviral activity and cytotoxicity (Figure 2). Several derivatives inhibited NL63 with distinct selectivity profiles. […] Visible crystals or precipitates formed at ≥50 µM without loss of viability or morphological change; therefore, downstream assays were performed at ≤25 µM.

[3] = system: IL6, ISG15, IFNB1, NQO1, HMOX1 (HO-1), GCLM, DDIT3 (CHOP), ATF4, XBP1 transcripts; assay: Targeted host-response transcript profiling (two-step RT-qPCR) in MRC-5 cells; assay type: cell-based, human; conditions: n = 3
Procedure: Total RNA was isolated using the RNeasy kit (QIAGEN, Hilden, Germany) according to the manufacturer’s instructions. cDNA was synthesized with the Tetro cDNA Synthesis Kit (Meridian Bioscience, Memphis, TN, USA) following the manufacturer’s protocol. Quantitative PCR was performed using Luna Universal qPCR Master Mix, SYBR (New England Biolabs, Ipswich, MA, USA). Target genes included IL6, ISG15, IFNB1, NQO1, HMOX1 (HO-1), GCLM, DDIT3 (CHOP), ATF4, and XBP1; primer sequences are listed in Table S3. ACTB served as the internal control. Expression changes were calculated as −ΔΔCt (log2 fold change) relative to time-matched calibrators (OC43 only for infected comparisons; DMSO for uninfected). Each condition included n = 3 biological replicates. At each time point, data were analyzed independently in GraphPad Prism 10.1.2 (GraphPad Software, San Diego, CA, USA) using an ordinary two-way ANOVA with factors gene (9 levels) and treatment (2 levels). Significance marks reflect within-gene simple-effects comparisons (treatment) with Tukey’s multiple-comparisons adjustment (two-tailed, α = 0.05). Time was not included as a factor; no inferences were made across time points.

HCoV-OC43 = assay: Extracellular viral RNA by RT-qPCR of supernatants, HCoV-OC43/Vero E6; assay type: cell-based, Human coronavirus OC43; conditions: Betacoronavirus 1, Vero C1008; HCoV-OC43/Vero E6, 72 h post-infection, n = 3
Procedure: At 72 h post-infection, 100–200 μL of culture supernatant was collected. Viral RNA was extracted using the QIAamp Viral RNA Mini Kit (Qiagen, Hilden, Germany)according to the manufacturer’s instructions and quantified by one-step RT-qPCR on a real-time thermocycler.
EC50 values were determined from concentration–response curves generated by 2-fold serial dilutions, with at least four concentration points per curve. Each measurement was performed in triplicate technical replicates. Unless otherwise indicated, data are presented as mean ± SEM from three independent biological experiments (n = 3).
For absolute quantification, synthetic DNA (oligonucleotide) standards corresponding to the NL63, OC43, and PEDV amplicons were used. Ten-fold serial dilutions were prepared to generate standard curves. Ct values were interpolated against the curves to obtain gene copies per reaction and converted to genome copies per mL by accounting for extraction and elution volumes and the qPCR input volume.

[4] = system: HCoV-NL63-infected LLC-MK2 cells; assay: Propidium iodide (PI) live/dead imaging in HCoV-NL63/LLC-MK2; assay type: cell-based, rhesus monkey; conditions: 20 µM post-treatment, 48 h post-infection, vs virus + DMSO, p < 0.01
Procedure: Cells were infected as in the immunofluorescence assay (IFA) and were post-treated with KB-2777 (20 µM, DMSO ≤ 0.1%). At 48 h post-infection, cells were stained live with PI (approximately 1 µg/mL, 30 min) and were immediately imaged (PI/Hoechst). For each field, we counted total nuclei (Hoechst), NL63 S-positive cells, PI-positive cells, and double-positive (S∩PI) cells. Outcomes were % PI^+/Total and % PI^+ among infected cells (PI^+/NL63 S^+). […] Statistics used the Mann–Whitney U test (two-tailed).

HCoV-NL63 = assay: Infectious titer (TCID50) of HCoV-NL63 at 48 h; assay type: cell-based, Human coronavirus NL63
Procedure: HCoV-OC43 (KBPV-VR-8), HCoV-NL63 (KBPV-VR-88), and PEDV DR13 (originally described in [20]) were used. HCoV-NL63 was propagated in LLC-MK2 cells, and HCoV-OC43 and PEDV DR13 were propagated in Vero E6 cells. Virus-containing supernatants were clarified (2000× g, 10 min, 4 °C), aliquoted, and stored at −80 °C. Infectious titers (TCID50/mL) were determined on the corresponding host cell lines by the Spearman–Kärber method with back-titrations included in each experiment.
We sought to confirm whether the antiviral activity observed by RT-qPCR was also present at the level of infectious progeny virus. […] Bars represent mean ± SEM; n = 3 independent experiments (triplicate wells per concentration).

SMILES: COc1cccc(-c2oc(-c3ccc(C(F)(F)F)cc3)nc2C(=O)NCC2CC2)c1 [KB-2777, N-(cyclopropylmethyl)-5-(3-methoxyphenyl)-2-(4-(trifluoromethyl)phenyl)Oxazole-4-Carboxamide]
- CC50 at 72 h [1]: > 50000 nM
- concentration at which visible crystals or precipitates formed [2]: ≥ 50 µM
- host-response transcripts (−ΔΔCt) in infected cells ([3]; OC43-infected MRC-5, OC43 + KB-2777 vs OC43 alone, time-matched): attenuated IL6, IFNB1, ISG15, and selected UPR transcripts; also recorded: attenuated these transcriptional responses
- host-response transcripts (−ΔΔCt) in uninfected cells ([3]; uninfected MRC-5, KB-2777 alone vs DMSO): changes were limited and transient
- pEC50 (HCoV-OC43): 5.74
- % PI+ among infected cells (PI+/NL63 S+) [4]: reduces
- % PI+/Total cells [4]: reduces
- infectious titer (TCID50) vs virus control (HCoV-NL63; HCoV-NL63, 48 h, post-treatment, 12.5 µM and 25 µM, p < 0.0001, n = 3): decreased; also recorded: significant reductions
- infectious titers (log10[TCID50/mL]) across TOA regimens (HCoV-NL63; HCoV-NL63, 48 h post-infection, full/pre/co/post): decreased in a regimen-dependent manner, largest with full exposure, smaller with pre- and post-treatment, and minimal with co-treatment
